Some test systems named below: BT-549 breast; PC-3 prostate; MCF7 breast; MDA-MB-231 breast.
What all share (assay): NCI-60 cell line screen, 48 h

Structures are written as SMILES. Values joined by “and” are separate entries in the source; they are usually repeats but may differ in a detail not shown here. Identical values can stand only once.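 Following 48 hours of exposure in 96-well plates, responses at five concentrations were used to interpolate endpoints linearly. GI50 marks 50% less growth. The concentration for full growth arrest is given as TGI.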

For the compound `CC1=CC[C@@H]2C(C)(C)C(=O)CC[C@@]2(C)[C@@H]1COc1ccc2ccc(=O)oc2c1`, the GI50 is 4370 nM in the experiment on BT-549 breast, 5410 nM in the experiment on PC-3 prostate, 12400 nM in the experiment on MCF7 breast and 25500 nM in the experiment on MDA-MB-231 breast. Further, the TGI with BT-549 breast was 22.5 µM; with PC-3 prostate, 31.8 µM; with MCF7 breast it was 31.9 µM; with MDA-MB-231 breast, greater than 100 µM.
As for `C=C1C(=O)O[C@H]2[C@H]1CC/C(Cn1cc(CNCCc3c[nH]c4ccc(Cl)cc34)nn1)=C\CC[C@@]1(C)O[C@@H]21`, the GI50 was 3880 nM in the experiment on BT-549 breast, 8960 nM in the experiment with PC-3 prostate, 2590 nM in the experiment on MCF7 breast and 4040 nM with MDA-MB-231 breast. Further, the TGI with BT-549 breast is 17 µM; in the experiment on PC-3 prostate, 27 µM; in the experiment with MCF7 breast it was 11.5 µM; with MDA-MB-231 breast, 16.2 µM.
Turning to `COc1ccc2c(c1)[C@]1(C[C@H]1c1ccc3c(/C=C/c4ccc(CN5C[C@@H](C)O[C@@H](C)C5)cc4)n[nH]c3c1)C(=O)N2`, the GI50 in the experiment on BT-549 breast was 1750 nM; in the experiment with PC-3 prostate, 2540 nM; with MCF7 breast, 1590 nM; in the experiment on MDA-MB-231 breast it was 4350 nM. The TGI with BT-549 breast is 5.29 µM; with PC-3 prostate, greater than 100 µM; in the experiment with MCF7 breast, greater than 75.4 µM; in the experiment with MDA-MB-231 breast it was greater than 54 µM.
Regarding `COc1cc(/C=N/Nc2ncnc3c2cnn3C(C)C)ccc1O`, the GI50 was greater than 20400 nM in the experiment on BT-549 breast, 5070 nM with PC-3 prostate, 4680 nM in the experiment with MCF7 breast and 6270 nM in the experiment with MDA-MB-231 breast. Further, the TGI in the experiment on BT-549 breast was greater than 25 µM; in the experiment with PC-3 prostate it was greater than 25 µM; in the experiment on MCF7 breast it was 16.1 µM; in the experiment on MDA-MB-231 breast, greater than 25 µM.
Consider `COc1cc2c(c(OC)c1OC)C(=O)CC(c1cccc(NC(=O)c3ccc(Br)cc3)c1)O2` (centres undefined), for which the GI50 is 2090 nM with BT-549 breast, 2330 nM with PC-3 prostate and 1900 nM in the experiment on MCF7 breast. Moreover, the TGI was 6.39 µM in the experiment on BT-549 breast, 8.59 µM in the experiment on PC-3 prostate and 49.3 µM in the experiment on MCF7 breast.
For the compound `O=C(Cn1c(=O)c(-c2ccccc2)nc2ccccc21)c1ccc(Cl)cc1`, the GI50 in the experiment on PC-3 prostate is 34600 nM; with MCF7 breast, 71200 nM; with MDA-MB-231 breast it was 40900 nM. Moreover, the TGI in the experiment with PC-3 prostate, in the experiment with MCF7 breast and with MDA-MB-231 breast was greater than 100 µM throughout.
In the case of `COc1cc([N+](=O)[O-])c(S(=O)(=O)O)cc1NS(=O)(=O)c1ccc(C)cc1`, the TGI with BT-549 breast, in the experiment with PC-3 prostate, in the experiment on MCF7 breast and in the experiment with MDA-MB-231 breast was greater than 100 µM in each case.
As to `CCN(CC)C(=O)CC1=C(C)/C(=C/c2[nH]c(-c3ccc[nH]3)cc2OC)N=C1C`, the GI50 was 787 nM in the experiment on BT-549 breast, 350 nM with PC-3 prostate, 458 nM in the experiment on MCF7 breast and 213 nM in the experiment with MDA-MB-231 breast. The TGI in the experiment with BT-549 breast was 47.1 µM; in the experiment with PC-3 prostate, 33 µM; in the experiment on MCF7 breast, 17.9 µM; in the experiment with MDA-MB-231 breast it was 0.909 µM.
Consider `CCNC(C)(C)C(SS)c1ccc(Br)cc1` (centres undefined), for which the TGI with BT-549 breast, with PC-3 prostate, in the experiment on MCF7 breast and in the experiment with MDA-MB-231 breast was greater than 100 µM each time.
Take `O=[N+]([O-])c1cc([N+](=O)[O-])c(Cl)c(Cl)c1Cl`: in the experiment on BT-549 breast, the GI50 was 8840 nM and the TGI worked out at 21 µM. In the experiment on MDA-MB-231 breast, the GI50 is 1710 nM and the TGI worked out at 3.24 µM.
Take `N=Nc1c(OC(=O)Nc2ccccc2)[nH]c2ccccc12`: the TGI stood at 27.6 µM with BT-549 breast, 34.4 µM with PC-3 prostate, 38.8 µM in the experiment with MCF7 breast and 41.6 µM in the experiment on MDA-MB-231 breast.
Take `CN1CCN(CCCOc2cccc3nc(Nc4ccc(Cl)c(F)c4)ccc23)CC1`: the GI50 in the experiment on BT-549 breast was 2400 nM; in the experiment on PC-3 prostate it was 1760 nM; in the experiment on MCF7 breast, 1310 nM; in the experiment on MDA-MB-231 breast, 1680 nM. Also, the TGI turned out to be 7.73 µM with BT-549 breast, 3.41 µM in the experiment with PC-3 prostate, 2.77 µM with MCF7 breast and 3.39 µM with MDA-MB-231 breast.
With `NC(=O)c1cc(-c2ccncc2)cc(-c2ccccc2)c1N`, the GI50 in the experiment on BT-549 breast was 22500 nM; in the experiment on PC-3 prostate it was greater than 22300 nM; in the experiment on MCF7 breast, greater than 25000 nM; with MDA-MB-231 breast it was 12200 nM. Further, the TGI in the experiment with BT-549 breast, in the experiment with PC-3 prostate, with MCF7 breast and in the experiment with MDA-MB-231 breast was greater than 25 µM in each case.
For the compound `COC(=O)CCC(C)[C@H]1CCC2C3C(C[C@H](OC(C)=O)[C@@]21C)[C@@]1(C)CCC2(C[C@H]1C[C@H]3OC(C)=O)OOC1(CCC(C)CC1)OO2` (some centres undefined), the GI50 is 6420 nM and 57000 nM in the experiment on BT-549 breast; 2980 nM and 7430 nM in the experiment with PC-3 prostate; 5620 nM and 38400 nM in the experiment on MCF7 breast. In addition, the TGI with BT-549 breast, in the experiment on PC-3 prostate, in the experiment with MCF7 breast and in the experiment with MDA-MB-231 breast was greater than 100 µM throughout.
With `COc1ccc(Cl)cc1Nc1nc(C(F)(F)F)ccc1C(=O)N/N=C/c1ccc([N+](=O)[O-])cc1`, the GI50 in the experiment with MCF7 breast is 2200 nM; with MDA-MB-231 breast it was 1490 nM. Moreover, the TGI turned out to be 7.85 µM with MCF7 breast and 4.38 µM in the experiment with MDA-MB-231 breast.
For `O=C(/C=C1\C(=O)N(Cc2ccc([N+](=O)[O-])cc2)c2ccccc21)c1ccc(OCCN2CCCCC2)cc1`, the GI50 with BT-549 breast is 1640 nM; with PC-3 prostate it was 1740 nM; with MCF7 breast it was 1430 nM; with MDA-MB-231 breast, 1300 nM. For the same compound, the TGI with BT-549 breast was 3 µM; in the experiment with PC-3 prostate, 3.52 µM; with MCF7 breast, 4.1 µM; in the experiment with MDA-MB-231 breast it was 2.67 µM.
As to `O=C(/C=C/C12c3ccccc3C(c3ccccc31)C1C(=O)N(c3ccccc3)C(=O)C12)c1ccc(Cl)cc1` (centres undefined), the GI50 is 1370 nM in the experiment with BT-549 breast, 1420 nM in the experiment with PC-3 prostate, 885 nM in the experiment on MCF7 breast and 1640 nM in the experiment on MDA-MB-231 breast. For the same compound, the TGI was 2.88 µM in the experiment on BT-549 breast, 8.27 µM in the experiment with PC-3 prostate, greater than 100 µM with MCF7 breast and 3.9 µM with MDA-MB-231 breast.
Regarding `Cc1c(C)c2c(c(C)c1NC(=O)/C=C\C(=O)O)CCC(C)(CCCC(C)CCCC(C)CCCC(C)C)O2` (centres undefined), the GI50 with BT-549 breast is 1350 nM; in the experiment with PC-3 prostate it was 1380 nM; in the experiment on MCF7 breast it was 2200 nM; in the experiment with MDA-MB-231 breast, 1940 nM. Also, the TGI with BT-549 breast amounted to 2.69 µM; in the experiment on PC-3 prostate, 2.91 µM; in the experiment with MCF7 breast, 5.32 µM; in the experiment on MDA-MB-231 breast, 3.55 µM.

Values taken from PubChem BioAssay (NCI).
